Experimental data: the SangsterLogP compilation

O=C1CCCCCCC(=O)N(Cc2ccccc2)CCN(Cc2ccccc2)C(=O)CCCCCCC(=O)N(Cc2ccccc2)CCN1Cc1ccccc1 showed a logP of 5.1. For O=C(COCC(=O)N(C1CCCCC1)C1CCCCC1)N(C1CCCCC1)C1CCCCC1, the logP was 6.7. With O=C1COCC(=O)N(Cc2ccccc2)CCN(c2ccccc2)CCN(Cc2ccccc2)C(=O)COCC(=O)NCCN1 the logP was 2.2. With O=C1COCCOCC(=O)N(Cc2ccccc2)CCN(Cc2ccccc2)C(=O)COCCOCC(=O)N(Cc2ccccc2)CCN1Cc1ccccc1 the logP was 3.8. Compound O=C1COCC(=O)N(Cc2ccccc2)CCOCCN(Cc2ccccc2)C(=O)COCC(=O)N(Cc2ccccc2)CCOCCN1Cc1ccccc1 has a logP of 3.8. With CCN(Cc1ccccc1)C(=O)COCC(=O)N(CC)Cc1ccccc1 the logP was 2.5. Work on O=C1COCC(=O)N(Cc2ccccc2)CCN(Cc2ccccc2)C(=O)COCC(=O)N(Cc2ccccc2)CCOCCN1Cc1ccccc1 yielded a logP of 3.8. For CCOC(=O)CCCCCCCCCCCN(C)C(=O)CO[C@@H](C)[C@H](C)OCC(=O)N(C)CCCCCCCCCCCC(=O)OCC, the logP was 6.2. O=C1COCC(=O)N(Cc2ccccc2)CCN(Cc2ccccc2)C(=O)COCC(=O)NCCN1 showed a logP of 1.9. For O=C1COCC(=O)N(Cc2ccccc2)CCN(c2ccccc2)CCN(Cc2ccccc2)C(=O)COCC(=O)N(Cc2ccccc2)CCN1Cc1ccccc1, the logP was 5.2. For O=C1COCC(=O)N(Cc2ccccc2)CCN(c2ccc(F)cc2)CCN(Cc2ccccc2)C(=O)COCC(=O)N(Cc2ccccc2)CCN1Cc1ccccc1, the logP was 5.2. O=C1COCC(=O)N(Cc2ccccc2)CCN(Cc2ccccc2)C(=O)COCC(=O)N(Cc2ccccc2)CCN1Cc1ccccc1 showed a logP of 3.8.
